{
  "source": "patent US20110110958A1",
  "about": "“COMPOSITIONS AND METHODS FOR THE TREATMENT OF NEOPLASIA” (UNIVERSITY OF FLORIDA RESEARCH FOUNDATION, priority 2007, published 2011)",
  "key": {"U87 glioma cells": {"tested_on": "U87 glioma cells", "assay": "Quantitative proteomics (iTRAQ 4plex), U87", "assay_type": "cell-based, human", "protocol": "(§1) FIGS. 14A and 14B are tables showing quantitative proteomic analysis of proteome changes 48 hours after J1 (65 μM, NCI) treatment on U87 (FIG. 14A) and U118 (FIG. 14B) glioma cells. To further explore the molecular mechanism of J1's cytotoxic effects on glioma cells, a quantitative proteomics analysis (iTRAQ 4plex) was conducted after J1 treatment. There were four groups: untreated U87 and U118 glioma cells and J1 treated U87 and U118 glioma cells at 48 hours. Each group was in triplicate. […] HSPA5 activation is a marker for Unfolded Protein Response (UPR), a pathway that can contribute to cell death or cell survival."}, "WT4 glioma cells": {"tested_on": "WT4 glioma cells", "assay": "Cell viability assay (trypan blue exclusion), WT4", "assay_type": "cell-based, human", "conditions": "p53-expressing and p53-non-expressing WT4 cells, J1 25 μM", "protocol": "(§2) T98G, U87MG, U118MG, A172, LN18, DBTRG-05MG, LN229, M059J, WT4 human glioma cell lines were purchased from American Type Culture Collection (Rockville, Md.). Cell culture was conducted according to the ATCC's recommendations, available at www.atcc.org. Normal human astrocytes (NHA) were purchased from Lonza Bioscience (Switzerland). Cell cultures were grown according to the vendor's recommendations for each cell line. GL261 mouse glioma cell line was obtained from NCI (Frederick, Md.) and was grown in RPMI (Gibco BRL, Grand Island, N.Y.) containing 10% FBS, 1% Penicillin-Streptomycin, and 4 mM L-glutamine at 37° C. with 5% CO2.\n(§3) J1 and its derivatives were provided by NCI developmental therapeutic program repository or purchased from Sigma-Aldrich Inc. Temozolomide (TMZ) was obtained from Schering-Plough (Kenilworth, N.J.). Both J1 and TMZ were dissolved in DMSO and stock solution of 100 mM were made.\n(§4) JAZ siRNA and control siRNA were purchased from Invitrogen. […]\n(§5) Cell viability was measured by first seeding tumor cells in 24-well dishes at a density of 10,000 cells per well. […] Forty-eight hours after transduction, cells were collected by trypsinization followed by the trypan blue exclusion method (Yang et al., J Biol Chem 1999; 274:27399-406) and counted manually using a hemacytometer. […]"}, "GL261 glioma cells": {"tested_on": "GL261 glioma cells", "assay": "Cytotoxicity on GL261", "assay_type": "cell-based, mouse", "conditions": "increasing concentrations", "protocol": "as §2"}, "leukemia cells": {"tested_on": "leukemia cells", "assay": "Cytotoxicity to leukemia cells (FIG. 13)", "assay_type": "cell-based"}, "U87MG glioma cells [1]": {"tested_on": "U87MG glioma cells", "assay": "DNA laddering in glioma cells", "assay_type": "cell-based, human", "conditions": "J1 25 μM"}, "HepG2 cells": {"tested_on": "HepG2 cells", "assay": "Cytotoxicity on HepG2", "assay_type": "cell-based, Human", "conditions": "dose and time-dependent"}, "colon cancer cells": {"tested_on": "colon cancer cells", "assay": "Cytotoxicity to colon cancer cells (FIG. 13)", "assay_type": "cell-based"}, "U118 glioma cells": {"tested_on": "U118 glioma cells", "assay": "Quantitative proteomics (iTRAQ 4plex), U118", "assay_type": "cell-based, human", "protocol": "as §1"}, "[2]": {"tested_on": "JAZ, p53, and Bax protein levels", "assay": "Western blot of JAZ, p53 and Bax", "assay_type": "cell-based", "conditions": "J1 25 μM", "protocol": "(§6) Whole cell protein extracts were prepared using cold lysis buffer consisting of: M-Per mammalian protein extraction reagent (Pierce Biochemical, Rockford, Ill.), 30 mM sodium fluoride, 1 mM sodium vanadate, and protease inhibitor cocktail tablets (Boehringer Mannheim). Samples were incubated on ice for 10 minutes and supernatants were recovered by centrifuging at 14,000 rpm at 4° C. for 20 minutes. Protein concentrations were determined by the BCA method (Pierce Biochemical). Proteins were separated on SDS-PAGE and transferred to nitrocellulose membrane (Osmonics, Minnetonka, Minn.). Blocking reagent is 5% nonfat dry milk in PBS (pH 7.4). Washing buffer is PBS (pH 7.4) with 0.1% Tween 20. Primary antibodies (p53, ATM, CHK1, CHK2) are commercially available. JAZ primary antibodies are described in Yang et al., Blood 108:4136-4145, 2006. The respective HRP-conjugated secondary antibodies were purchased from Boehringer Mannheim. Signals are visualized by using ECL chemiluminescence (Amersham, Indianapolis, Ind.) or Supersignal chemiluminescence (Pierce Biochemical) and Kodak X-OMAT films. Data acquired as integrated densitometric values are transformed to percentages of the values obtained from control samples visualized on the same blot."}, "T98G glioma cells": {"tested_on": "T98G glioma cells", "assay": "Cell viability assay (trypan blue exclusion), T98G", "assay_type": "cell-based, human", "conditions": "mutant-type p53-expressing T98G cells after J1 treatment", "protocol": "as §2, §3, §4, §5"}, "lung cancer cells": {"tested_on": "lung cancer cells", "assay": "Cytotoxicity to lung cancer cells (FIG. 13)", "assay_type": "cell-based"}, "glioma cell viability": {"tested_on": "glioma cell viability", "assay": "GI50 comparison of J1 with FDA approved chemotherapy drugs (FIG. 12)", "assay_type": "cell-based", "conditions": "read-out: GI50 (concentration of drug that causes 50% growth inhibition)"}, "[3]": {"tested_on": "ATF-4 protein levels in U87 glioma cells", "assay": "Western blot of ATF-4, U87", "assay_type": "cell-based, human", "conditions": "U87, 24, 48, and 72 hours after J1 (10 and 25 μM)", "protocol": "as §6"}, "U87MG glioma cells [4]": {"tested_on": "U87MG glioma cells", "assay": "Cell viability assay (trypan blue exclusion), U87MG", "assay_type": "cell-based, human", "set-up": "viable U87 cells after JAZ siRNA plus J1: dose or concentration left out as unconfirmed", "protocol": "as §2, §3\nJAZ siRNA and control siRNA were purchased from Invitrogen. Cell transfection was performed by using METAFECTENE PRO (Biontex Laboratories GmbH, Germany) following the manufacturer's instructions. Briefly, 40 pmoles of JAZ (or control) siRNA was added into 30 μl serum-free medium then mixed with METAFECTENE PRO solution and incubated for 15-20 minutes at room temperature. The final siRNA-lipid complex solution was added into one 24-well-plate well. The complex-containing medium was replaced with serum-containing medium at 3 hours after the transfection to reduce the toxicity.\nCell viability was measured by first seeding tumor cells in 24-well dishes at a density of 10,000 cells per well. Two days later, cells were transduced with JAZ (or control) siRNA. Forty-eight hours after transduction, cells were collected by trypsinization followed by the trypan blue exclusion method (Yang et al., J Biol Chem 1999; 274:27399-406) and counted manually using a hemacytometer. This experiment was repeated six times for each cell line and each time in triplicate."}, "[5]": {"tested_on": "ATF-4 protein levels in U118MG cell line", "assay": "Western blot of ATF-4, U118MG", "assay_type": "cell-based, human", "conditions": "U118MG, 24, 48, and 72 hours after J1 (10 and 25 μM)", "protocol": "as §6"}, "[6]": {"tested_on": "LNCAP prostate carcinoma cells", "assay": "Cytotoxicity on LNCAP", "assay_type": "cell-based"}, "[7]": {"tested_on": "DU145 prostate carcinoma cells", "assay": "Cytotoxicity on DU145", "assay_type": "cell-based"}, "[8]": {"tested_on": "ATF-4 and CHOP in U87 cells", "assay": "Immunofluorescence of ATF-4 and CHOP, U87", "assay_type": "cell-based, human"}, "[9]": {"tested_on": "primary cultured hepatocytes", "assay": "Cytotoxicity on primary cultured hepatocytes", "assay_type": "cell-based", "conditions": "24 hours after drug treatment"}, "glioma": {"tested_on": "glioma", "assay": "In vitro glioma cytotoxic effects of J1 analogues (FIG. 18)", "assay_type": "cell-based"}},
  "data": [
    {"smiles": "O=C(Nc1ccc(Cl)c(Cl)c1)Nc1ccccc1O", "note": "[J1, N′-(2-hydroxy-phenyl)-N-(3,4-dichlorophenyl)Urea]", "values": [
      {"measurement": "HSPA5 (GRP78, Bip) protein levels", "setting": "U87 glioma cells; U87, 48 hours after J1 (65 μM)", "value": "consistently and significantly increased"},
      {"measurement": "PLOD2 protein level", "setting": "U87 glioma cells; U87 glioma cells", "value": "significantly down-regulated"},
      {"measurement": "proteins up-regulated by J1 treatment", "setting": "U87 glioma cells; U87 glioma cells", "value": "PBEF1, HSPA5, ANXA1, TPI1, ANXA5, HSPA9, TGM2, NPM1, and RPLP2"},
      {"measurement": "viable tumor cells", "setting": "WT4 glioma cells", "value": "time-dependent significant reduction of viable tumor cells"},
      {"measurement": "cytotoxic effects on GL261 glioma cells", "setting": "GL261 glioma cells", "value": "progressively greater cytotoxic effects"},
      {"measurement": "cytotoxicity to leukemia cells", "setting": "leukemia cells", "value": "cytotoxic"},
      {"measurement": "DNA laddering formation", "setting": "U87MG glioma cells [1]", "value": "increased DNA laddering formation"},
      {"measurement": "cytotoxic effects on HepG2 cells", "setting": "HepG2 cells", "value": "significant cytotoxic effects"},
      {"measurement": "cytotoxicity to colon cancer cells", "setting": "colon cancer cells", "value": "cytotoxic"},
      {"measurement": "HSPA5 (GRP78, Bip) protein levels", "setting": "U118 glioma cells; U118, 48 hours after J1 (65 μM)", "value": "consistently and significantly increased"},
      {"measurement": "proteins up-regulated by J1 treatment", "setting": "U118 glioma cells; U118 glioma cells", "value": "HSPA5, PBEF1, HSPA1B, VIM, LMNA and HIST2H3PS2"},
      {"measurement": "JAZ, p53, and Bax protein levels", "setting": "[2]", "value": "did not alter"},
      {"measurement": "viable tumor cells, time and dose course", "setting": "T98G glioma cells", "value": "time- and dose-dependent significant reduction of viable tumor cells"},
      {"measurement": "cytotoxicity to lung cancer cells", "setting": "lung cancer cells", "value": "cytotoxic"},
      {"measurement": "GI50", "setting": "glioma cell viability", "value": 10, "unit": "µM"},
      {"measurement": "ATF-4 protein levels", "setting": "[3]", "value": "time- and dose dependent increase"},
      {"measurement": "viable U87 cells after JAZ siRNA plus J1", "setting": "U87MG glioma cells [4]; 24 hours after JAZ siRNA transfection, J1 for additional 24 hours", "value": "did not lead to further reduction of viable U87 cells"},
      {"measurement": "viable U87 cells", "setting": "U87MG glioma cells [4]; 48 hours after J1 treatment (10 μM)", "value": "reduction of viable U87 cells"},
      {"measurement": "viable tumor cells, time and dose course", "setting": "U87MG glioma cells [4]; U87MG cells after J1 treatment", "value": "time- and dose-dependent significant reduction of viable tumor cells"},
      {"measurement": "ATF-4 protein levels", "setting": "[5]", "value": "time- and dose dependent increase"},
      {"measurement": "cytotoxic effects on LNCAP cells", "setting": "[6]", "value": "strong dose and time-dependent cytotoxic effects"},
      {"measurement": "cytotoxic effects on DU145 cells", "setting": "[7]", "value": "strong dose and time-dependent cytotoxic effects"},
      {"measurement": "nuclear ATF-4 staining", "setting": "[8]; 12 hours after J1 (25 μM)", "value": "significantly increased"},
      {"measurement": "CHOP staining", "setting": "[8]; 24 hours after J1 (25 μM)", "value": "significantly increased"},
      {"measurement": "cytotoxic effects on primary cultured hepatocytes", "setting": "[9]", "value": "minimal cytotoxic effects"}
    ]},
    {"smiles": "O=C(Nc1ccc(Cl)cc1)Nc1ccc(Cl)c(Cl)c1", "note": "[J1-h, 3-(4-chloro-phenyl)-1-(3,4-dichlorophenyl) Urea]", "values": [
      {"measurement": "cytotoxic effects on GL261 glioma cells", "setting": "GL261 glioma cells", "value": "progressively greater cytotoxic effects"},
      {"measurement": "cytotoxic effects on HepG2 cells", "setting": "HepG2 cells", "value": "significant cytotoxic effects"},
      {"measurement": "in vitro glioma cytotoxic effects", "setting": "glioma", "value": "glioma cytotoxic effects"},
      {"measurement": "cytotoxic effects on LNCAP cells", "setting": "[6]", "value": "strong dose and time-dependent cytotoxic effects"},
      {"measurement": "cytotoxic effects on DU145 cells", "setting": "[7]", "value": "strong dose and time-dependent cytotoxic effects"},
      {"measurement": "cytotoxic effects on primary cultured hepatocytes", "setting": "[9]", "value": "minimal cytotoxic effects"}
    ]},
    {"smiles": "Cn1nnc2c(C(N)=O)ncn2c1=O", "note": "[Temozolomide, reference compound]", "values": [
      {"measurement": "GI50", "setting": "glioma cell viability", "value": 100, "unit": "µM"}
    ]}
  ]
}
